Experimental data published in ChEMBL document CHEMBL1201862, “PubChem BioAssay data set” (2004).
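The compound was tested at five concentrations on cells cultured in 96-well plates, with a 48-hour exposure period. GI50: concentration for 50% inhibition of growth.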 Active and inactive are the calls of the source. Rule as the data show it: active = GI50 up to about 1.1 µM and inactive = higher. Where a SMILES comes first, the peptide text is derived from it. The star is where a group is joined. Fmoc = O=C(OCC1c2ccccc2-c2ccccc21)*; OtBu = CC(C)(C)O*

What was measured:
Test in all cases: growth of human tumour cells (NCI), 48 h
A549 = system: A549
ACHN = system: ACHN
CCRF-CEM = system: CCRF-CEM
COLO 205 = system: COLO 205
HCT-116 = system: HCT-116
HOP-62 = system: HOP-62
HT-29 = system: HT-29
K562 = system: K562
LOX IMVI = system: LOX IMVI
M14 = system: M14
MCF7 = system: MCF7
NCI-H226 = system: NCI-H226
NCI/ADR-RES = system: NCI/ADR-RES
RPMI-8226 = system: RPMI-8226
RXF 393 = system: RXF 393
SF-268 = system: SF-268
SF-295 = system: SF-295
SNB-75 = system: SNB-75
SW-620 = system: SW-620
TK-10 = system: TK-10

SMILES	GI50 (A549)	GI50 (ACHN)	GI50 (CCRF-CEM)	GI50 (COLO 205)	GI50 (HCT-116)	GI50 (HOP-62)	GI50 (HT-29)	GI50 (K562)	GI50 (LOX IMVI)	GI50 (M14)	GI50 (MCF7)	GI50 (NCI-H226)	GI50 (NCI/ADR-RES)	GI50 (RPMI-8226)	GI50 (RXF 393)	GI50 (SF-268)	GI50 (SF-295)	GI50 (SNB-75)	GI50 (SW-620)	GI50 (TK-10)
CSC1=N/C(=C\c2ccco2)C(=O)N1CN1CCOCC1	> 100 µM (inactive)	43 µM (inactive)	30.4 µM (inactive)	38.5 µM (inactive)	29.2 µM (inactive)	> 100 µM (inactive)	33.6 µM (inactive)	42.5 µM (inactive)	30.7 µM (inactive)	> 92.3 µM (inactive)	23 µM (inactive)	75 µM (inactive)	> 61.8 µM (inactive)	32.7 µM (inactive)	20.4 µM (inactive)	> 44.4 µM (inactive)	> 100 µM (inactive)	> 100 µM (inactive)	31.7 µM (inactive)	> 58.1 µM (inactive)
CCCCOC(=O)C(O)Cc1ccoc1 (stereo not given)	> 100 µM (inactive)	> 100 µM (inactive)	> 100 µM (inactive)	> 100 µM (inactive)	> 100 µM (inactive)	> 100 µM (inactive)	> 100 µM (inactive)	> 100 µM (inactive)	> 100 µM (inactive)	> 100 µM (inactive)	> 100 µM (inactive)	> 100 µM (inactive)	> 100 µM (inactive)	> 100 µM (inactive)	> 100 µM (inactive)	> 100 µM (inactive)	> 100 µM (inactive)	> 100 µM (inactive)	> 100 µM (inactive)	> 100 µM (inactive)
O=C(O)c1c(CC(Cc2ccc3c(c2)CCCC3)C(=O)O)ccc2c1CCCC2 (stereo not given)	> 100 µM (inactive)	> 100 µM (inactive)	> 100 µM (inactive)	> 100 µM (inactive)	> 100 µM (inactive)	> 100 µM (inactive)	> 100 µM (inactive)	> 100 µM (inactive)	> 100 µM (inactive)	> 100 µM (inactive)	< 0.01 µM (active)	> 100 µM (inactive)	> 100 µM (inactive)	> 100 µM (inactive)	> 100 µM (inactive)	> 100 µM (inactive)	> 100 µM (inactive)	> 100 µM (inactive)	> 100 µM (inactive)	> 100 µM (inactive)
CC(C)/C(Cl)=N/OC(=O)Nc1ccc(Cl)c(Cl)c1	21.4 µM (inactive)	1.99 µM (inactive)	0.851 µM (active)	1.83 µM (inactive)	2.18 µM (inactive)	18.2 µM (inactive)	5.48 µM (inactive)	0.989 µM (active)	1.64 µM (inactive)	2.45 µM (inactive)	9.93 µM (inactive)	18.1 µM (inactive)	16.7 µM (inactive)	2.36 µM (inactive)	13.4 µM (inactive)	18.2 µM (inactive)	17.7 µM (inactive)	19.7 µM (inactive)	2.13 µM (inactive)	5.86 µM (inactive)
N#C[C@@H](c1nc2ccccc2s1)c1ncccc1[N+](=O)[O-]	4.4 µM (inactive)	6.07 µM (inactive)	> 10 µM (inactive)	4.31 µM (inactive)	5.6 µM (inactive)	10.4 µM (inactive)	8.3 µM (inactive)	> 10 µM (inactive)	4.97 µM (inactive)	8.22 µM (inactive)	5.11 µM (inactive)	5.55 µM (inactive)	6.46 µM (inactive)	4.9 µM (inactive)	5.87 µM (inactive)	8.11 µM (inactive)	4.1 µM (inactive)	13.9 µM (inactive)	> 10 µM (inactive)	4.79 µM (inactive)
CC(C)(C)[Si](C)(C)OCC1OC(n2cnc3c(=O)[nH]c(N)nc32)C(O[Si](C)(C)C(C)(C)C)C1O[Si](C)(C)C(C)(C)C (stereo not given)	2.34 µM (inactive)	2.08 µM (inactive)	1.3 µM (inactive)	1.72 µM (inactive)	1.49 µM (inactive)	2.64 µM (inactive)	1.8 µM (inactive)	1.22 µM (inactive)	2.09 µM (inactive)	1.5 µM (inactive)	2.33 µM (inactive)	2.84 µM (inactive)	> 100 µM (inactive)	1.14 µM (inactive)	2.04 µM (inactive)	2.58 µM (inactive)	1.55 µM (inactive)	3.11 µM (inactive)	2.47 µM (inactive)	2.34 µM (inactive)
Cn1cnc([N+](=O)[O-])c1SCC(=O)O	> 100 µM (inactive)	> 100 µM (inactive)	> 100 µM (inactive)	> 100 µM (inactive)	> 100 µM (inactive)	> 100 µM (inactive)	> 100 µM (inactive)	> 100 µM (inactive)	> 100 µM (inactive)	> 100 µM (inactive)	> 100 µM (inactive)	> 100 µM (inactive)	> 100 µM (inactive)	> 100 µM (inactive)	> 100 µM (inactive)	> 100 µM (inactive)	> 100 µM (inactive)	> 100 µM (inactive)	> 100 µM (inactive)	> 100 µM (inactive)
COc1cc(/C=C(\C)[N+](=O)[O-])cc(OC)c1	28.3 µM (inactive)	16.4 µM (inactive)	2.4 µM (inactive)	8.05 µM (inactive)	16.1 µM (inactive)	19.2 µM (inactive)	20 µM (inactive)	2.69 µM (inactive)	3.08 µM (inactive)	14.8 µM (inactive)	6.73 µM (inactive)	> 52.5 µM (inactive)	20.2 µM (inactive)	3.12 µM (inactive)	7.48 µM (inactive)	19.3 µM (inactive)	25.8 µM (inactive)	16.7 µM (inactive)	4.49 µM (inactive)	11.8 µM (inactive)
NCCCCNCCCN1CC1	4.94 µM (inactive)	0.902 µM (active)	0.951 µM (active)	0.871 µM (active)	2.42 µM (inactive)	0.92 µM (active)	4.55 µM (inactive)	1.75 µM (inactive)	0.284 µM (active)	2.89 µM (inactive)	20.6 µM (inactive)	2.67 µM (inactive)	1.16 µM (inactive)	8 µM (inactive)	0.123 µM (active)	0.957 µM (active)	4.09 µM (inactive)	0.246 µM (active)	4.16 µM (inactive)	2.04 µM (inactive)
Cc1ccc2c(=O)[nH]sc2c1	19 µM (inactive)	9.29 µM (inactive)	3.26 µM (inactive)	3.82 µM (inactive)	31.9 µM (inactive)	19.5 µM (inactive)	16.7 µM (inactive)	5.58 µM (inactive)	16.1 µM (inactive)	11.7 µM (inactive)	17.1 µM (inactive)	19.7 µM (inactive)	21.6 µM (inactive)	5.31 µM (inactive)	15.3 µM (inactive)	19.9 µM (inactive)	54.5 µM (inactive)	71.6 µM (inactive)	12.6 µM (inactive)	18.4 µM (inactive)
CC1=CC(=O)[C@@H](O)[C@]2(C)[C@H]3[C@@]4(O)OC[C@@]35[C@@H](C[C@@H]12)OC(=O)C(OC(=O)CC1=CCCC1)[C@H]5[C@@H](C)[C@H]4O (stereo not given in full)	0.28 µM (active)	0.0344 µM (active)	0.0197 µM (active)	0.24 µM (active)	0.0255 µM (active)	0.024 µM (active)	0.0238 µM (active)	0.0246 µM (active)	< 0.0177 µM (active)	0.0294 µM (active)	< 0.0142 µM (active)	0.0167 µM (active)	0.136 µM (active)	< 0.0124 µM (active)	0.04 µM (active)	0.0345 µM (active)	0.0649 µM (active)	0.0423 µM (active)	0.0622 µM (active)	0.0408 µM (active)
CC(C)(CO)NC1=C(Cl)C(=O)c2c(O)ccc(O)c2C1=O	1.86 µM (inactive)	1.7 µM (inactive)	0.33 µM (active)	1.22 µM (inactive)	1.57 µM (inactive)	1.56 µM (inactive)	1.31 µM (inactive)	0.104 µM (active)	0.45 µM (active)	0.865 µM (active)	1.33 µM (inactive)	2.16 µM (inactive)	1.88 µM (inactive)	2.05 µM (inactive)	1.85 µM (inactive)	2.61 µM (inactive)	1.7 µM (inactive)	1.31 µM (inactive)	0.327 µM (active)	1.88 µM (inactive)
CC(C)C(NC(=O)OCC1c2ccccc2-c2ccccc21)C(=O)NC(CCC(=O)OC(C)(C)C)C(=O)OC(C)(C)C (stereo not given) (Fmoc-Val-Glu(OtBu)-OtBu; configuration not given here)	60 µM (inactive)	> 100 µM (inactive)	> 100 µM (inactive)	> 31.6 µM (inactive)	4.42 µM (inactive)	> 93.1 µM (inactive)	> 100 µM (inactive)	> 20.5 µM (inactive)	8.38 µM (inactive)	> 100 µM (inactive)	> 76.4 µM (inactive)	> 100 µM (inactive)	27 µM (inactive)	2.92 µM (inactive)	> 20 µM (inactive)	> 87.3 µM (inactive)	17.2 µM (inactive)	> 46.9 µM (inactive)	> 71.4 µM (inactive)	> 100 µM (inactive)
Oc1cc(-c2cccc(Cl)c2)nc2ncccc12	0.126 µM (active)	3.27 µM (inactive)	0.0689 µM (active)	0.0782 µM (active)	0.0312 µM (active)	0.253 µM (active)	0.0405 µM (active)	0.0208 µM (active)	0.133 µM (active)	0.0845 µM (active)	0.122 µM (active)	0.378 µM (active)	0.221 µM (active)	0.05 µM (active)	0.219 µM (active)	5.53 µM (inactive)	0.0533 µM (active)	0.971 µM (active)	0.114 µM (active)	24.3 µM (inactive)
